Values after ≈ are worked out from the molar mass of the structure shown.
Columns and labels:
[1] = Tmax in rat plasma at 50 mg/kg dosed via oral gavage; format: ADME, organism-based
[2] = Cmax in rat plasma at 50 mg/kg dosed via oral gavage; format: ADME, organism-based; parameters: dose 50 mg/kg, route oral
[3] = Solubility of compound in saline solution after 1 hr by LC/MS analysis; format: physicochemical; conditions: buffer
Liver = assay: Drug metabolism in rat liver S9 fractions at 1 uM measured at 0 to 60 mins by LC/MS analysis; format: ADME, subcellular, Liver S9 fraction; conditions: s9, 1 µM
[4] = AUC(infinity) in rat at 50 mg/kg dosed via oral gavage; format: ADME, organism-based; parameters: dose 50 mg/kg, route oral, time infinity; conditions: in vivo
[5] = Oral bioavailability in rat plasma at 50 mg/kg dosed via gavage; format: ADME, organism-based
[6] = Drug recovery in rat bile at 50 mg/kg dosed via oral gavage; format: ADME, organism-based; conditions: read-out: Drug recovery
[7] = Solubility of compound in stimulated GI fluid at pH 1.1 measured at 15 to 60 mins by LC/MS analysis; format: ADME; conditions: buffer
[8] = Solubility of compound in stimulated intestinal fluid at pH 6.8 measured at 0.5 to 3 hrs by LC/MS analysis; format: ADME; conditions: simulated gi fluid
[9] = Thermal stability of compound after 30 mins by thermogravimetric analysis; format: physicochemical; conditions: 0.5 h
[10] = Solubility of compound in phosphate buffer at pH 8 after 1 hr by LC/MS analysis; format: physicochemical; conditions: pH 8, 1 h
[11] = Solubility of compound in methanol after 2 hrs; format: physicochemical

Tmax [1] [min]	Cmax [2] [nM]	solubility [3] [µg/mL]	Drug metabolism (Liver)	AUC(0-inf) [4] [µM·h]	bioavailability [5] [%]	dose excreted [6] [%]	solubility [7]	solubility [8]	T [9] [°C]	solubility [10] [µg/mL]	solubility [11]	Structure (SMILES)
15	2360	39320	metabolite_detected	9.34	5.6	1.8	soluble	soluble	214	–	–	C[N+](C)(C)CCO.O=C([O-])c1cc(/N=N/c2ccc(S(=O)(=O)Nc3ccccn3)cc2)ccc1O
–	–	10 (≈ 0.0251 mM)	metabolite_detected	–	–	–	soluble	soluble	253	3090 (≈ 7.76 mM)	soluble	O=C(O)c1cc(/N=N/c2ccc(S(=O)(=O)Nc3ccccn3)cc2)ccc1O [SULFASALAZINE]
